In the experiment the test system is PGE-2. Kind of experiment: PGE-2 increase on UVR exposure: control, Retinol and Skin Therapeutic Composition 5 (FIG. 2). The class given is in vivo. The note with it: in the presence of UVR. The source says: FIG. 2 illustrates an implementation of the reduction and/or inhibition of skin inflammation as a result of topical application of Skin Therapeutic Composition 5.
A night serum may be prepare including Skin Therapeutic Composition 5. FIG. 2 illustrates an implementation of the reduction and/or inhibition of skin inflammation as a result of topical application of Skin Therapeutic Composition 5. […] Skin Therapeutic 5 encourages collagen growth and inhibits the overproduction of PGE-2 when exposed to UVR.

Data on one compound can be found in patent US11298391B1, “Topical skin health improvement compositions and administrations thereof” (Lorenol Laboratories, Inc., priority 2017, dated 2022).

Regarding `CC1=C(/C=C/C(C)=C/C=C/C(C)=C/CO)C(C)(C)CCC1` [Retinol], the PGE-2 change result was “increase in PGE-2”.
